The text below walks through data of patent US7595405B2, “Tetrazole-substituted arylamides as P2X3 and P2X2/3 antagonists” (Roche Palo Alto LLC, priority 2006, dated 2009).

SMILES strings stand for the structures. pIC50: −log10 of the molar value.

For one data set, the target named is T1, rat P2X3 receptor (Rattus norvegicus, UniProt P49654).
T1 construct: expressed in transfected cells; host or cells: CHO-K1
T1 sequence (P49654 1-397): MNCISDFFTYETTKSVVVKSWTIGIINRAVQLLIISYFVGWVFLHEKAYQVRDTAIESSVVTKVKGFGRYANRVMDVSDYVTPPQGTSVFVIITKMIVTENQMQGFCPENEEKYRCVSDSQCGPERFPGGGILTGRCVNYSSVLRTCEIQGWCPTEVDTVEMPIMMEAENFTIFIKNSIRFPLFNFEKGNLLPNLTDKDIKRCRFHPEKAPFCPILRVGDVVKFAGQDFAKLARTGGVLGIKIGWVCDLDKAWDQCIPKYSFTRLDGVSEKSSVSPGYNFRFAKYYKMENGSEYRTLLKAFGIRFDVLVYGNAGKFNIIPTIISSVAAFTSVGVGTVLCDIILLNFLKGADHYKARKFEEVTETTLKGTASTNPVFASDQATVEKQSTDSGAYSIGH
The data set is described as follows: P2X3 FLIPR (Fluorometric Imaging Plate Reader) assay. In kind it is cell-based. The conditions noted are these: CHO-K1 cells transfected with rat P2X3, agonist α,β-meATP 1 μM. As to the method: P2X3/P2X2/3 FLIPR (Fluorometric Imaging Plate Reader) Assay
CHO-K1 cells were transfected with cloned rat P2X3 or human P2X2/3 receptor subunits and passaged in flasks. 18-24 hours before the FLIPR experiment, cells were released from their flasks, centrifuged, and resuspended in nutrient medium at 2.5×10^5 cells/ml. The cells were aliquoted into black-walled 96-well plates at a density of 50,000 cells/well and incubated overnight in 5% CO2 at 37° C. On the day of the experiment, cells were washed in FLIPR buffer (calcium- and magnesium-free Hank's balanced salt solution, 10 mM HEPES, 2 mM CaCl2, 2.5 mM probenecid; FB). […]
Test compounds (dissolved in DMSO at 10 mM and serially diluted with FB) or vehicle were added to each well (25 μl of a 4× solution) and allowed to equilibrate for 20 minutes at room temperature. The plates were then placed in the FLIPR and a baseline fluorescence measurement (excitation at 488 nm and emission at 510-570 nm) was obtained for 10 seconds before a 100 μl/well agonist or vehicle addition. […] Fluorescence was measured for an additional 2 minutes at 1 second intervals after agonist addition. A final addition of ionomycin (5 μM, final concentration) was made to each well of the FLIPR test plate to establish cell viability and maximum fluorescence of dye-bound cytosolic calcium. […]

As for `CCCc1nnnn1-c1cc(C(=O)NCc2cnc(C)cn2)cc(-c2ccc(Cl)cc2F)c1` [Example 741, 4′-Chloro-2′-fluoro-5-(5-propyl-tetrazol-1-yl)-biphenyl-3-carboxylic acid (5-methyl-pyrazin-2-ylmethyl)-amide], the melting point was in the range of 52 to 55 °C. The compound `CCCc1nnnn1-c1cc(C(=O)N[C@@H](C)CO)cc(-c2ccc(Cl)cc2F)c1` [Example 742, 4′-Chloro-2′-fluoro-5-(5-propyl-tetrazol-1-yl)-biphenyl-3-carboxylic acid ((S)-2-hydroxy-1-methyl-ethyl)-amide] gave a melting point of 58 to 60.3 °C. In turn, `Cc1ccc(-c2cc(C(=O)N[C@@H](C)CO)cc(-n3nnnc3CC(C)C)c2)cc1` [5-(5-isobutyl-tetrazol-1-yl)-4′-methyl-biphenyl-3-carboxylic acid ((S)-2-hydroxy-1-methyl-ethyl)-amide] showed a pIC50 at rat P2X3 receptor of about 8.80.

Broadly, the melting point is the temperature of the solid-liquid transition. Usually pIC50 stands for the negative decadic logarithm of the IC50, by convention in mol/L.
